# Results reported in patent publication US11911361B2, “Stable cannabinoid formulations” (priority 2014, dated 2024).
# Experiments:
# [1] = test system: paclitaxel-induced mechanical sensitivity; assay: Paclitaxel induced neuropathic pain study (Von Frey mechanical sensitivity); format: in vivo, mice
# [2] = Pharmacokinetic food-effect study, single 20 mg/kg dose, healthy subjects (Example 17); conditions: 7-OH-cannabidiol; for ln(AUC0-inf) Geometric Mean / ln(AUC0-t) Geometric Mean / ln(Cmax) Geometric Mean: least squares geometric mean; for AUC0 / AUC0-0.25 / AUC0-0.5 / AUC0-0.75 / AUC0-1 / AUC0-1.5 / AUC0-2 / AUC0-2.5 / AUC0-3 / AUC0-4 / AUC0-6 / AUC0-8 / AUC0-12 / AUC0-16 / AUC0-24 / AUC0-36 / AUC0-48 / AUC0-72 / AUC0-96 / AUC0-120: single 20 mg/kg cannabidiol oral, mean ± SD; for AUC(0-inf) / AUC(0-t) / AUCextrap / Clast / Cmax / Tlast / t1/2 / λz / Tmax: single 20 mg/kg oral dose of cannabidiol solution; for AUC(0-inf) / AUC(0-t) / AUCextrap / Clast / Cmax / Tlast / t1/2 / λz: mean; for Tmax: median (min, max)
# Method: An open label, randomized, single-dose, two-period, two-way crossover food-effect study was conducted on healthy subjects. […] Twenty-four (24) subjects were enrolled in the study and each were subjected to the fasted and fed treatment arms in separate periods followed by a 7-day wash-out period. For pharmacokinetic analysis, nominal time and default lambda-z selections were used. All below quantifiable limit values were set to zero and all subjects were included in the analysis.
# Data from 13 subjects from the fasted treatment and 24 subject from the fed treatment were included in the pharmacokinetic and statistical analyses.
# [3] = 20 mg/kg cannabidiol oral, Fasted
# [4] = 20 mg/kg cannabidiol oral, geometric mean (fed)/geometric mean (fasted)
structure (smiles),measurement,setting,value
"CCCCCc1cc(O)c2c(c1)OC(C)(C)[C@@H]1CCC(C)=C[C@@H]21 [THC, reference compound]",minimal effective dose,[1]; IP,2.5 mg/kg
same,dose equi-effective to […] CBD,[1]; dose equivalence analysis,0.7 mg/kg
same,effect on paclitaxel-induced mechanical sensitivity (in words),"[1]; pretreatment 15 minutes prior to each paclitaxel injection, IP",significantly attenuated
C=C(C)[C@@H]1CCC(CO)=C[C@H]1c1c(O)cc(CCCCC)cc1O [Formulation 7-OH-cannabidiol],ln(AUC0-inf) Geometric Mean,[2]; [3],657.5873
same,ln(AUC0-t) Geometric Mean,[2]; [3],630.3322
same,ln(Cmax) Geometric Mean,[2]; [3],34.8933
same,ln(AUC0-inf) Geometric Mean,"[2]; 20 mg/kg cannabidiol oral, Fed",4701.4345
same,ln(AUC0-t) Geometric Mean,"[2]; 20 mg/kg cannabidiol oral, Fed",4610.3024
same,ln(Cmax) Geometric Mean,"[2]; 20 mg/kg cannabidiol oral, Fed",442.6751
same,ln(AUC0-inf) Ratio (%) (Fed/Fasted),[2]; [4],714.95%
same,ln(AUC0-t) Ratio (%) (Fed/Fasted),[2]; [4],731.41%
same,ln(Cmax) Ratio (%) (Fed/Fasted),[2]; [4],1268.65%
same,AUC0,[2]; fasted,0.114 ± 0.410 ng·h/mL
same,AUC0-0.25,[2]; fasted,0.101 ± 0.363 ng·h/mL
same,AUC0-0.5,[2]; fasted,0.217 ± 0.361 ng·h/mL
same,AUC0-0.75,[2]; fasted,0.954 ± 0.843 ng·h/mL
same,AUC0-1,[2]; fasted,2.29 ± 2.13 ng·h/mL
same,AUC0-1.5,[2]; fasted,3.91 ± 3.90 ng·h/mL
same,AUC0-2,[2]; fasted,5.46 ± 5.23 ng·h/mL
same,AUC0-2.5,[2]; fasted,6.81 ± 6.85 ng·h/mL
same,AUC0-3,[2]; fasted,7.83 ± 8.27 ng·h/mL
same,AUC0-4,[2]; fasted,8.65 ± 8.64 ng·h/mL
same,AUC0-6,[2]; fasted,9.79 ± 7.71 ng·h/mL
same,AUC0-8,[2]; fasted,18.5 ± 34.2 ng·h/mL
same,AUC0-12,[2]; fasted,10.1 ± 8.36 ng·h/mL
same,AUC0-16,[2]; fasted,7.23 ± 4.28 ng·h/mL
same,AUC0-24,[2]; fasted,6.09 ± 2.70 ng·h/mL
same,AUC0-36,[2]; fasted,4.39 ± 2.45 ng·h/mL
same,AUC0-48,[2]; fasted,3.00 ± 1.91 ng·h/mL
same,AUC0-72,[2]; fasted,1.65 ± 1.38 ng·h/mL
same,AUC0-96,[2]; fasted,1.04 ± 1.11 ng·h/mL
same,AUC0-120,[2]; fasted,0.511 ± 0.799 ng·h/mL
same,AUC0,[2]; fed,0.131 ± 0.537 ng·h/mL
same,AUC0-0.25,[2]; fed,0.221 ± 0.676 ng·h/mL
same,AUC0-0.5,[2]; fed,0.980 ± 1.29 ng·h/mL
same,AUC0-0.75,[2]; fed,2.87 ± 4.21 ng·h/mL
same,AUC0-1,[2]; fed,7.33 ± 11.7 ng·h/mL
same,AUC0-1.5,[2]; fed,47.5 ± 78.5 ng·h/mL
same,AUC0-2,[2]; fed,104 ± 150 ng·h/mL
same,AUC0-2.5,[2]; fed,158 ± 202 ng·h/mL
same,AUC0-3,[2]; fed,197 ± 235 ng·h/mL
same,AUC0-4,[2]; fed,289 ± 290 ng·h/mL
same,AUC0-6,[2]; fed,346 ± 188 ng·h/mL
same,AUC0-8,[2]; fed,284 ± 128 ng·h/mL
same,AUC0-12,[2]; fed,187 ± 121 ng·h/mL
same,AUC0-16,[2]; fed,85.7 ± 36.9 ng·h/mL
same,AUC0-24,[2]; fed,47.5 ± 23.0 ng·h/mL
same,AUC0-36,[2]; fed,26.7 ± 13.1 ng·h/mL
same,AUC0-48,[2]; fed,16.9 ± 7.73 ng·h/mL
same,AUC0-72,[2]; fed,7.36 ± 3.10 ng·h/mL
same,AUC0-96,[2]; fed,4.03 ± 1.94 ng·h/mL
same,AUC0-120,[2]; fed,2.41 ± 1.26 ng·h/mL
same,AUC(0-inf),[2]; fasted,425.3 ng·h/mL
same,AUC(0-t),[2]; fasted,414.7 ng·h/mL
same,AUCextrap,[2]; fasted,2.77%
same,Clast,[2]; fasted,0.561 ng/mL
same,Cmax,[2]; fasted,22.8 ng/mL
same,Tlast,[2]; fasted,114.47 h
same,t1/2,[2]; fasted,21.36 h
same,λz,[2]; fasted,0.0348 h⁻¹
same,Tmax,[2]; fasted,"8.00 (2.50, 24.00) h"
same,AUC(0-inf),[2]; fed,4902 ng·h/mL
same,AUC(0-t),[2]; fed,4811 ng·h/mL
same,AUCextrap,[2]; fed,1.93%
same,Clast,[2]; fed,2.41 ng/mL
same,Cmax,[2]; fed,474 ng/mL
same,Tlast,[2]; fed,120.00 h
same,t1/2,[2]; fed,24.69 h
same,λz,[2]; fed,0.0292 h⁻¹
same,Tmax,[2]; fed,"6.00 (3.00, 12.00) h"
